Results reported in ChEMBL document CHEMBL1201862, “PubChem BioAssay data set” (2004).
Activity calls are given as the source filed them.

Experiments:
[1] = Luminescence Cell-Based Dose Response HTS to Identify Inhibitors of 5'UTR Stem-Loop Driven Prion Protein mRNA Translation in H4 Neuroglioblastoma Cells. [Related pubchem assays: 1827 (Project Summary), 1813 (Primary HTS)]; format: functional
[2] = molecular target: Luciferin 4-monooxygenase (Photinus pyralis, UniProt P08659); test: Counter Screen for Luciferase-based Assay Positives. [Related pubchem assays: 620, 618, 411 ]
[3] = molecular target: T1, Oxysterols receptor LXR-beta (Homo sapiens, UniProt P55055); format: functional, cell-based;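 note: Cell-based luminescence dose-response assay of agonist activity at LXR, run as a confirmatory counterscreen to a daf-12 agonist screen; HEK293 cells with Gal4-LXR fusion and GAL4-driven luciferase reporter; agonist potency from rising luciferase signal of a Gal4-LXR reporter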
T1 sequence (P55055 whole entry): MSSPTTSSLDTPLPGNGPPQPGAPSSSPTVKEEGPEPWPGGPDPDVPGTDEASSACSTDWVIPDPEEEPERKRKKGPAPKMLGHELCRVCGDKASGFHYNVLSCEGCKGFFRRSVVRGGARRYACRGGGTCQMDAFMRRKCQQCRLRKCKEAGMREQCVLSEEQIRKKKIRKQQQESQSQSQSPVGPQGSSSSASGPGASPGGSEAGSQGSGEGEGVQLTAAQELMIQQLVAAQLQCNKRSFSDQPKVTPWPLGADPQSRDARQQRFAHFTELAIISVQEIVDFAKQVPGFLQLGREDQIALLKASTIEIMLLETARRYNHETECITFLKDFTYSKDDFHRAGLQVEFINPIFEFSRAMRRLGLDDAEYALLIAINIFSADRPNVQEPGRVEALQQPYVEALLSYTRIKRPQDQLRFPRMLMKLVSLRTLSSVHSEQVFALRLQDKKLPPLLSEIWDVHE

[4] = inhibitors of SNCA 5'UTR-driven reporter translation, confirmation, H4 neuroglioma cells, luminescence (AID 1988); format: functional, cell-based
HT-1080 = test: cytotoxicity in HT1080 fibrosarcoma cells, cell-based, fluorescence readout (AID 620); format: functional; details: Homo sapiens
Chaperone protein dnaK = Chaperone protein dnaK (Escherichia coli, UniProt C3TRK2); test: DnaK beta-domain binding affinity, SAR follow-up, orthogonal assay for DnaK modulator project, biophysical, isothermal titration calorimetry, full-length DnaK (AID 1495)
Staphylococcus aureus = test: Inhibitors of Bacterial Quorum Sensing Structure Activity Relationship (SAR) Analysis: Dose Response Assay. [Related pubchem assays: 700, 527 ]; format: functional, organism-based
[5] = molecular target: Polyadenylate-binding protein 1 (Homo sapiens, UniProt P11940); test: PABP poly(A) RNA binding inhibitors, primary screen, biochemical, fluorescence polarization, uHTS (AID 2014)
[6] = molecular target: Eukaryotic translation initiation factor 4H (Homo sapiens, UniProt Q15056); test: human eIF4H binding inhibitors, primary screen, translation initiation inhibitor project, biochemical, uHTS, fluorescence polarization (AID 2012)
Vero [7] = test: cells; format: functional; details: Chlorocebus sabaeus
[8] = molecular target: DNA (cytosine-5)-methyltransferase 1 (Homo sapiens, UniProt P26358); test: DNMT1 methyltransferase inhibitors, confirmation, biochemical, fluorescent molecular beacon (AID 602386); format: functional
[9] = molecular target: T2, Zinc finger protein mex-5 (Caenorhabditis elegans, UniProt Q9XUB2); test: MEX-5/TCR-2 RNA interaction inhibitors, dose response, biochemical, C. elegans, fluorescence polarization (AID 1960)
T2 sequence (Q9XUB2 whole entry): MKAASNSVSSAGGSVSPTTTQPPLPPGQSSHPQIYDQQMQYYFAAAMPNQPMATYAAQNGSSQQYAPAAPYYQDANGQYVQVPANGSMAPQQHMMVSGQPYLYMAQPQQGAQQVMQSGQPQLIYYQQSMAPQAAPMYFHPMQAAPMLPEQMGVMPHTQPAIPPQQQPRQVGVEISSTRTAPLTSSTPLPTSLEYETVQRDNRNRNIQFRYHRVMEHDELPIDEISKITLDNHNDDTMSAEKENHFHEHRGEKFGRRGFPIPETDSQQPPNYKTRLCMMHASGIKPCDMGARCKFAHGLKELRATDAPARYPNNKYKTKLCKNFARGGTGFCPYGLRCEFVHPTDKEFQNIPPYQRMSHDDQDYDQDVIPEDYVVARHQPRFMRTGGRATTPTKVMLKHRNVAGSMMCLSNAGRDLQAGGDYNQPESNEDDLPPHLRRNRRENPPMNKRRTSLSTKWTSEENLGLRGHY

Streptokinase A = molecular target: T3, Streptokinase A (Streptococcus pyogenes serotype M1, UniProt P10520); test: S. pyogenes streptokinase expression inhibitors, potency, dose response, plasminogen activation absorbance, OD405 (AID 1914); format: functional, Streptococcus pyogenes M1 GAS;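 note: secreted streptokinase activity via plasminogen activation per viability signal from cell pellet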
T3 sequence (P10520 whole entry): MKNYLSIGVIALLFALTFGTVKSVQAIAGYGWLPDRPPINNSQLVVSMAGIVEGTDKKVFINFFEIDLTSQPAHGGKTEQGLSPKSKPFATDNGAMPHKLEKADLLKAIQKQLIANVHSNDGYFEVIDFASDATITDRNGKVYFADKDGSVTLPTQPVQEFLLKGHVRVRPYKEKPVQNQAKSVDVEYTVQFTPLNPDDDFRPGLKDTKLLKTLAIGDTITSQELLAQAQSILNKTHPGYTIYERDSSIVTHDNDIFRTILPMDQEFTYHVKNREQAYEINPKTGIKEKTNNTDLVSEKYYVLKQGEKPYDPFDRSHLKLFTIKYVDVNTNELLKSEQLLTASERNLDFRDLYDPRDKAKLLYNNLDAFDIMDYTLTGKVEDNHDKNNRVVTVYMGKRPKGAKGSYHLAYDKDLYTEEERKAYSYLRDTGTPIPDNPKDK

Streptococcus = test: Group A Streptococcus viability loss, dose response, counter-screen for streptokinase expression inhibitor project, luminescence, BacTiterGlo (AID 1915); format: functional, organism-based;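 note: potency for reduction of bacterial viability or growth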
Vero [10] = test: Vero cell cytotoxicity, cytotoxicity control for flavivirus capping enzyme inhibitors (AID 588742); format: functional; details: Chlorocebus sabaeus
Vero [11] = test: cells; format: functional, cell-based; details: Chlorocebus sabaeus
[12] = HIV-1 Env-mediated cell fusion inhibitors, dose response, CCR5-tropic Env (AID 2279); format: functional
[13] = molecular target: Heat shock protein HSP 90-alpha (Homo sapiens, UniProt P07900); format: functional, organism-based
[14] = molecular target: T4, RNA-binding protein pos-1 (Caenorhabditis elegans, UniProt G5EF15); test: inhibitors of POS-1/mex-3 RNA binding, dose response, biochemical, fluorescence polarization (AID 1964);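 note: purified POS-1 fused to maltose binding protein made in E. coli; potency of compounds blocking POS-1 binding to fluorescent RNA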
T4 sequence (G5EF15 whole entry): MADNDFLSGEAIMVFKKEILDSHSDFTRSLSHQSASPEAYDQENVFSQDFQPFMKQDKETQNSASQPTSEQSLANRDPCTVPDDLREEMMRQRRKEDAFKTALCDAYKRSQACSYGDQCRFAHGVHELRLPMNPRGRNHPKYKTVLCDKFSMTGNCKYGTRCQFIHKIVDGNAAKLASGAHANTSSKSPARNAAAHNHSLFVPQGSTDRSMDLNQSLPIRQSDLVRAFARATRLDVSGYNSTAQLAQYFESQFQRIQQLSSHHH

[15] = test system: Streptococcus sp. 'group A'; test: growth inhibition of control SK(-) GAS strain, dose response, counter-screen for streptokinase expression inhibitor project, luminescence, kanamycin, BacTiterGlo, confirmation (AID 1900); format: functional, organism-based
Genome polyprotein = Genome polyprotein (dengue virus type 2, UniProt P29990); test: Dengue-2 NS5 methyltransferase inhibitors, primary screen, biochemical, confirmation dose response (AID 588689); format: functional
[16] = molecular target: Melanin-concentrating hormone receptor 1 (Homo sapiens, UniProt Q99705); test: Late-stage fluorescence-based counterscreen for antagonists of the G-protein coupled receptor 7 (GPR7): cell-based dose response assay to identify antagonists of the melanin-concentrating hormone receptor 1 (MCHR1). [Related pubchem assays (depositor defined):AID1861, AID1880, AID1952, AID2148, AID2251, AID2257, AID485339]; format: functional;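 note: stimulated with 30 nM MCH peptide agonist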
Cytochrome P450 2D6 = Cytochrome P450 2D6 (Homo sapiens, UniProt P10635); test: qHTS Assay for Inhibitors and Substrates of Cytochrome P450 2D6. [Related pubchem assays: 410 ]; format: ADME; details: read-out: Potency
[17] = molecular target: T5, Ubiquitin-conjugating enzyme E2 N (Homo sapiens, UniProt P61088); format: functional;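 note: Dose-response confirmation in a TR-FRET assay detecting UBC13-driven polyubiquitin chain formation, inhibition measured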
T5 sequence (P61088 whole entry): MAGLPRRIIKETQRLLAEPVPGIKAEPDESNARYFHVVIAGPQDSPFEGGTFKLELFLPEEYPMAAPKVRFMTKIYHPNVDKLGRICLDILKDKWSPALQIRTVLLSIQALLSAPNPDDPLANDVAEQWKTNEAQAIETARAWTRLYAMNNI

[18] = inhibitors of firefly luciferase expression or activity, dose response, H4 neuroglioma cells, luminescence (AID 1990); format: functional, cell-based
[19] = molecular target: Cyclin-dependent kinase 5/CDK5 activator 1 (Homo sapiens, UniProt Q00535); test: CDK5/p35 kinase inhibitors, dose response, biochemical, cherry-picked samples, set 2 (AID 504545)
HEK293 = test: Fluorescence-based counterscreen for potentiators or agonists of NPY-Y2: cell-based high-throughput dose response assay to identify inhibitors of cyclic nucleotide gated ion channel (CNGC) activity. In this assay, the parental HEK293 cell line transfected with a cyclic-nucleotide gated ion channel (CNGC)-based cAMP sensor is used to measure inhibition of isoproterenol-induced CNGC activity by test compound.; format: functional; details: Homo sapiens;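 note: stimulus is 1 µM isoproterenol at EC100 plus PDE inhibitor Ro 20-1724 at 25 µM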
[20] = molecular target: Neuropeptide Y receptor type 1 (Homo sapiens, UniProt P25929); test: Fluorescence-based counterscreen for agonists of NPY-Y2: cell-based high-throughput dose response assay for agonists of NPY-Y1.; format: functional
[21] = molecular target: Neuropeptide Y receptor type 2 (Homo sapiens, UniProt P49146); test: Fluorescence-based cell-based high-throughput dose response assay for agonists of NPY-Y2. [Related pubchem assays: 1703 (Screening assay (CNGC inhibitors).), 1359 (Screening assay (NPY-Y2 potentiators or agonists).), 1304 (Screening assay (NPY-Y1 potentiators or agonists).), 1710 (Screening assay (NPY-Y2 agonists).), 1791 (Summary AID.)]; format: functional
[22] = molecular target: T6, Delta-type opioid receptor (Homo sapiens, UniProt P41143); test: DOR agonists, SAR follow-up, image-based (AID 2370); format: functional
[23] = molecular target: T7, Kappa-type opioid receptor (Homo sapiens, UniProt P41145); test: SAR analysis of small molecule agonists of the kappa opioid receptor via a luminescent beta-arrestin assay. [Related pubchem assays (depositor defined):AID1777, AID1786, AID1966, AID2133, AID2136, AID2348, AID2352, AID2357, AID2359, AID2370, AID2420, AID2478, AID2491, AID2492, AID2493, AID2497, AID2498, AID2500, AID449737, AID488822, AID488842]; format: functional
[24] = molecular target: T7, Kappa-type opioid receptor; test: KOR agonist analogs, imaging readout, SAR follow-up, image-based (AID 2359); format: functional
Mu-type opioid receptor [25] = molecular target: T8, Mu-type opioid receptor (Homo sapiens, UniProt P35372); test: MOR antagonists, SAR follow-up, image-based (AID 2420); format: functional;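 note: compounds added before stimulation of receptor with agonist DAMGO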
Mu-type opioid receptor [26] = molecular target: T8, Mu-type opioid receptor; test: MOR agonists by imaging, SAR follow-up, image-based (AID 2352); format: functional
[27] = molecular target: T6, Delta-type opioid receptor; test: DOR antagonists, SAR follow-up, image-based (AID 2357); format: functional
[28] = molecular target: T7, Kappa-type opioid receptor; test: KOR antagonists by imaging, SAR follow-up, image-based (AID 2348); format: functional
[29] = molecular target: Lysosomal acid glucosylceramidase (Homo sapiens, UniProt P04062); test: Dose response cell-based high throughput screening assay to identify enhancers of beta-glucosidase activity. [Related pubchem assays: 784 ]; format: functional

T7 sequence (P41145 whole entry): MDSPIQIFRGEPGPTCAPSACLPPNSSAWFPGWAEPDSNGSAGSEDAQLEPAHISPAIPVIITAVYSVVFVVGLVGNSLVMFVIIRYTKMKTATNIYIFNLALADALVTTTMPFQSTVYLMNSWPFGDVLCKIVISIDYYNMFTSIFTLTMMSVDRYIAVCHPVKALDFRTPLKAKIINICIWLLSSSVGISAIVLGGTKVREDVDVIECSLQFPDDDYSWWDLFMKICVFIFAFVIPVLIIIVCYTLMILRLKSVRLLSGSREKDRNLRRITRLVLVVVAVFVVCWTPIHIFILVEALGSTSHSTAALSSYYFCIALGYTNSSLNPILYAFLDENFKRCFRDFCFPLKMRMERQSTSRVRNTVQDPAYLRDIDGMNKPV
T8 sequence (P35372 whole entry): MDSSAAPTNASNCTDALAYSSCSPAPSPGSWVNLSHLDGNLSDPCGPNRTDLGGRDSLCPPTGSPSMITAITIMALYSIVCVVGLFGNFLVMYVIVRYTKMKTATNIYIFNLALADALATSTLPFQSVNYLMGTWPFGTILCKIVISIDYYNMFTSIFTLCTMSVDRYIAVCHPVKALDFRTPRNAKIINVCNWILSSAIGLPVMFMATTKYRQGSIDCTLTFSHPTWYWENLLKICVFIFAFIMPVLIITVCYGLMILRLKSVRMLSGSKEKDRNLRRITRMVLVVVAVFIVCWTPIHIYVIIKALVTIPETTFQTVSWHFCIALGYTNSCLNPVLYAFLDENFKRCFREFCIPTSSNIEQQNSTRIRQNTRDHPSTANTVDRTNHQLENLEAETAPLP
T6 sequence (P41143 whole entry): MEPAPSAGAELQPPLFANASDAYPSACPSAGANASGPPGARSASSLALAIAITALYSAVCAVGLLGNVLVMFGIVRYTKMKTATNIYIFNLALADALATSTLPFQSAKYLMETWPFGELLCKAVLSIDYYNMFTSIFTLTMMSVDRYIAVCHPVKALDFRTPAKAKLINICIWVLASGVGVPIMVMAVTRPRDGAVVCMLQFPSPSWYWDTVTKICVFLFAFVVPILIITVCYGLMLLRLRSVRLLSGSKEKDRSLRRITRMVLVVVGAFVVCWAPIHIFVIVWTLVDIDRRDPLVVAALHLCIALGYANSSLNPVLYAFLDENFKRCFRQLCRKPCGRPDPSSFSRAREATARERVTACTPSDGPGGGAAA
Chain of DNA (cytosine-5)-methyltransferase 1 (P26358 whole entry): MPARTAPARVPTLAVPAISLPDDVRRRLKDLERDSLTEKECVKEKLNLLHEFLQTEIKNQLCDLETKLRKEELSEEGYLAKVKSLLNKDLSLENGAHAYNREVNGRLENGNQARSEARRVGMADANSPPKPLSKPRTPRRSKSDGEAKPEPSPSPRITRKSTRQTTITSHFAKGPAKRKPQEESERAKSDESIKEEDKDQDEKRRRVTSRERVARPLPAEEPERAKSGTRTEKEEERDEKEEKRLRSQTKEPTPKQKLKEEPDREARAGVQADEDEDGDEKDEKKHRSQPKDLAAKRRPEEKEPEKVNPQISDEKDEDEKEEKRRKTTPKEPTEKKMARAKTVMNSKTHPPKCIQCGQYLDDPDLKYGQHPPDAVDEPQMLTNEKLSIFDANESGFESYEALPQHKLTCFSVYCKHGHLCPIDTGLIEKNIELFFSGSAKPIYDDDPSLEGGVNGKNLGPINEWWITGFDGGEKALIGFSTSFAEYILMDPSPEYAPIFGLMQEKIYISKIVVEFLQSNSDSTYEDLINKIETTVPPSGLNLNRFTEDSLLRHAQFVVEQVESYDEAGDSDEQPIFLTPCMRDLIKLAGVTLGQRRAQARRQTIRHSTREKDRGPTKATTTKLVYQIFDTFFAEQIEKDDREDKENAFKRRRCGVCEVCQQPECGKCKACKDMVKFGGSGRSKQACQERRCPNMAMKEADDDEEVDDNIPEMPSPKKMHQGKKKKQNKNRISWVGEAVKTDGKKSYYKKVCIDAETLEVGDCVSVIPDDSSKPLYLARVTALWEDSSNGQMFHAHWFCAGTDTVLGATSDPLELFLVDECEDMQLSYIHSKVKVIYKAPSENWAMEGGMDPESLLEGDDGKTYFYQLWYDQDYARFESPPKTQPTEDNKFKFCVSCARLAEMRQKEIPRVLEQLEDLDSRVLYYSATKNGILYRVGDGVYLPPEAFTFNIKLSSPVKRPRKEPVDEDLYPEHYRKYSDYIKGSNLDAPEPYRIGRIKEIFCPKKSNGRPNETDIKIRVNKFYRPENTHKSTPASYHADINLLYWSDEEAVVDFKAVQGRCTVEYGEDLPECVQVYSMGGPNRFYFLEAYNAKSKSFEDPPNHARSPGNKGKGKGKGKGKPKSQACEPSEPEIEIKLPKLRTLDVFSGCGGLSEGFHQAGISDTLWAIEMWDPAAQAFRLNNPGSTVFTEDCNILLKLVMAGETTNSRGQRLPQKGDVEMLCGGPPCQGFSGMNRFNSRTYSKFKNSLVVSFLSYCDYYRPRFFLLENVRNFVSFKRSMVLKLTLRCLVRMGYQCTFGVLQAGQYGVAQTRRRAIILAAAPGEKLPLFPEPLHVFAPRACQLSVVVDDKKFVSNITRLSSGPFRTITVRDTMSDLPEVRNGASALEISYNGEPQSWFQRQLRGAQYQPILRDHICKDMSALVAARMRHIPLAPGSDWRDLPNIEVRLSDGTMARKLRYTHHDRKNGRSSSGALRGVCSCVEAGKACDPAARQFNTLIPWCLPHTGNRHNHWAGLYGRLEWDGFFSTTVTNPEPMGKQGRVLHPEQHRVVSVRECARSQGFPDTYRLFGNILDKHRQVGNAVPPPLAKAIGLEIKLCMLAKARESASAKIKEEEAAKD
Chain of Neuropeptide Y receptor type 1 (P25929 whole entry): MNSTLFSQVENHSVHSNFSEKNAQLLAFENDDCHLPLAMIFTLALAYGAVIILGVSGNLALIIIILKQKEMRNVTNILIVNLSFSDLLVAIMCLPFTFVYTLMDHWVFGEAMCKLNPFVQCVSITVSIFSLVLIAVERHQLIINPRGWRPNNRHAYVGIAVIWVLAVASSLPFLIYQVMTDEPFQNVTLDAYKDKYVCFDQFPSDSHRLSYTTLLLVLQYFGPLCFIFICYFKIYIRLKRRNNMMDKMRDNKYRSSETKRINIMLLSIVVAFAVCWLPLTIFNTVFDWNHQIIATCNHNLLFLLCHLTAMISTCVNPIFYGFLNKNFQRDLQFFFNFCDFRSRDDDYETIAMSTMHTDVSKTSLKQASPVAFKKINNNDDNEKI
Chain of Chaperone protein dnaK (C3TRK2 whole entry): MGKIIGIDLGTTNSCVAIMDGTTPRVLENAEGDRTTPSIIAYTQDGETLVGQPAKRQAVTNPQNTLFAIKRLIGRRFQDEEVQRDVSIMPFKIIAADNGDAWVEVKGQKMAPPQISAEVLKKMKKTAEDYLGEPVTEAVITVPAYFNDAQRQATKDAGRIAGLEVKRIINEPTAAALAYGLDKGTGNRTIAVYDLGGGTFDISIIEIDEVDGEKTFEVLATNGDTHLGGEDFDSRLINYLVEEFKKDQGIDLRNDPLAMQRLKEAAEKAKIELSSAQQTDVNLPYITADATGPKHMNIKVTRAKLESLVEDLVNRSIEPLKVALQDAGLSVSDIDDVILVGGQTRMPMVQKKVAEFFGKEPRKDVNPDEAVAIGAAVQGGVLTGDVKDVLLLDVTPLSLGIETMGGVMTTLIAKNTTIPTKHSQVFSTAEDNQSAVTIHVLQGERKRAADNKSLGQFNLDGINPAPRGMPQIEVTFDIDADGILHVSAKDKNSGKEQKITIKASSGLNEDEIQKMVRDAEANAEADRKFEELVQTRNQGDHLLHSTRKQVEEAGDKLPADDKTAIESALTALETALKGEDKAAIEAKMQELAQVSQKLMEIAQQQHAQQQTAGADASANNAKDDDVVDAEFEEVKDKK
Chain of Cytochrome P450 2D6 (P10635 whole entry): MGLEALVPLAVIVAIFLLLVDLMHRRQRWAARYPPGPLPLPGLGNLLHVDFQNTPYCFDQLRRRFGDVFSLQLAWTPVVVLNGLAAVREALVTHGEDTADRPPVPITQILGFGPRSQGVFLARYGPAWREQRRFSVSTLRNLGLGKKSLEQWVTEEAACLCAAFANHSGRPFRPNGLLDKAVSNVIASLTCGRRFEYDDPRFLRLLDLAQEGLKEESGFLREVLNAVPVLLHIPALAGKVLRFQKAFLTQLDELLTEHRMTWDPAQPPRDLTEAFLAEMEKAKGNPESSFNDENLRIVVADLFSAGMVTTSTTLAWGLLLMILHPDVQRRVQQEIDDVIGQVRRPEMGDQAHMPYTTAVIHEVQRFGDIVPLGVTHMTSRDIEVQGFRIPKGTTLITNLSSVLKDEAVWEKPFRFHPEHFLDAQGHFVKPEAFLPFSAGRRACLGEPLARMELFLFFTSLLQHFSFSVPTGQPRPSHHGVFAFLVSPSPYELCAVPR
Chain of Melanin-concentrating hormone receptor 1 (Q99705 whole entry): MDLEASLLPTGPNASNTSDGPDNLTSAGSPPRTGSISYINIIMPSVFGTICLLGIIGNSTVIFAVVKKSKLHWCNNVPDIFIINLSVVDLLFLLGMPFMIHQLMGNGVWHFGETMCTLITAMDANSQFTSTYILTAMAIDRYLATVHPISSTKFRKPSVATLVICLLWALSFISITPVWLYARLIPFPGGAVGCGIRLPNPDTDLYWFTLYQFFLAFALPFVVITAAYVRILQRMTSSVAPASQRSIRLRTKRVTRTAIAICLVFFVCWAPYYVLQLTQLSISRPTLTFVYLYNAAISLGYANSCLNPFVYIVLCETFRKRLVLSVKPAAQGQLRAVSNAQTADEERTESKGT

Cc1ccc(-c2nc3n(n2)Cc2ccccc2-3)cc1
EC50 [1]: 0.364 µM (active)
EC50 [2]: 2.87 µM (active)
EC50 [3]: > 67.5 µM (inactive)
EC50 [4]: 6.59 µM (active)
EC50 (cells): > 67.5 µM (inactive)
EC50 (HT-1080): > 50 µM (not active)

O=C(NCc1ccccc1O)c1cccs1
Kd (Chaperone protein dnaK): 2.3 µM (active)

CCCCc1oc2ccccc2c1C(=O)c1ccc(O)cc1
IC50 (Staphylococcus aureus): 0.544 µM (active)

O=C(O)c1ccc(N/N=C/c2cc3c(cc2[N+](=O)[O-])OCO3)cc1
IC50 [5]: 48.8 µM (active)
IC50 [6]: 21.8 µM (active)

COc1ccc(C(=O)/C=C/c2ccc(-c3ccccc3)cc2)cc1CSCC(=O)O
CC50 (Vero [7]): > 25 µM (active)
IC50 [8]: 9.8 µM (active)
EC50 [9]: > 300 µM (not active)
EC50 (Streptokinase A): 8.81 µM (active)
EC50 (Streptococcus): > 150 µM (not active)
CC50 (Vero [10]): 29.5 µM (active)
IC50 (Vero [11]): > 25 µM (active)
IC50 [12]: 9.89 µM (active)
AC50 [13]: 9.3 µM (active)
EC50 [14]: > 300 µM (not active)
EC50 [15]: 4.28 µM (active)
IC50 (Genome polyprotein): 37.7 µM (active)

CCc1ccc(Oc2c(Cl)cnn(-c3ccc(C)cc3)c2=O)cc1
IC50 [16]: 5 µM (active)

CCOC(=O)OCC1C=C[C@H](c2cc(-c3ccccc3)ccc2O)C(c2ccc(C(C)=O)cc2)O1 (stereo not given in full)
AC50 (Cytochrome P450 2D6): 6.31 µM (inconclusive)

CC(C)n1cnc2c(Nc3cccc(Cl)c3)nc(N(CCO)CCCO)nc21
EC50 [1]: 10.7 µM (active)
EC50 [4]: 9.32 µM (active)
IC50 [17]: > 20 µM (inactive)
EC50 [18]: 10.8 µM (active)
AC50 [19]: 0.463 µM (active)

O=C(Nc1sc2c(c1-c1nc3ccccc3[nH]1)CCCC2)C1CC1
EC50 (HEK293): > 35.4 µM (not active)
EC50 [20]: 17.3 µM (not active)
EC50 [21]: > 35.4 µM (not active)

Cc1cccc(-n2ccnc2CN2CCC(CO)(CC3CCCCO3)CC2)c1 (stereo not given)
EC50 [22]: > 32 µM (inactive)
EC50 [23]: > 10 µM (inactive)
EC50 [24]: 5.82 µM (active)
IC50 (Mu-type opioid receptor [25]): > 32 µM (inactive)
EC50 (Mu-type opioid receptor [26]): > 32 µM (inactive)
IC50 [27]: > 32 µM (inactive)
IC50 [28]: > 32 µM (inactive)

COC(=O)c1cn(C(=O)c2cccs2)c2ccccc12
EC50 [29]: > 50 µM (not active)
